In general, DC50 refers to the midpoint of the concentration-degradation curve.

A value given as a limit tells only on which side of the number the result lay.

The text below walks through data of patent publication US20240190880A1 (THE REGENTS OF THE UNIVERSITY OF MICHIGAN, priority 2021, published 2024).

The target of this assay is T1, ER (Homo sapiens, UniProt P03372).
T1 construct: host or cells: T47D and MCF7 human breast cancer cells
T1 sequence (P03372 1-595): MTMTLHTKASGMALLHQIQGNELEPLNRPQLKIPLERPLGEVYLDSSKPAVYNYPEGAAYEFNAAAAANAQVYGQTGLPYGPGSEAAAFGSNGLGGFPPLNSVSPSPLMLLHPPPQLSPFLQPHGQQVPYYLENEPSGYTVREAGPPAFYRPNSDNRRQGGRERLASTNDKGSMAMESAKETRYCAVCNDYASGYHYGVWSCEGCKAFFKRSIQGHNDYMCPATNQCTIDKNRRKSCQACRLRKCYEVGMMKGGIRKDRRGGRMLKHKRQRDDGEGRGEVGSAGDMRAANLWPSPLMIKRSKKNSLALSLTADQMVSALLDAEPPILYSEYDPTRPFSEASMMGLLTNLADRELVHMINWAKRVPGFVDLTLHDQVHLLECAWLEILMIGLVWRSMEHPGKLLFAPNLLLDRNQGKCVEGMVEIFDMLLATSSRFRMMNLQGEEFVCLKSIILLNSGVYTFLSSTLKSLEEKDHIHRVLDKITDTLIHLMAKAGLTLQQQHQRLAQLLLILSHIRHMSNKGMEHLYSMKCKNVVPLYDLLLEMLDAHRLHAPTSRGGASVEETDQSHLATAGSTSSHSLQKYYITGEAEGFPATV
Kind of assay: ER degradation activity, in-cell western blot analysis in T47D cells. The note with it: 16 hours, Table A does not say which cell line (T47D or MCF7), read-out: Potency (DC50). Type of assay: cell-based. In outline:
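T47D cells grown in DMEM with 10% FBS were treated with compounds for 16 hours at 0.5% DMSO final. ER was detected by in-cell western using 680/800 near-infrared secondary antibodies. Residual ER is given as percent of untreated and DMSO-treated wells set to 100%.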
For the molecule `O=C1CCC(N2C(=O)c3cc4c(cc3C2=O)CN(C2CC(C(=O)N3CCCC(Oc5ccc([C@@H]6c7ccc(O)cc7CC[C@@H]6c6ccccc6)cc5)C3)C2)C4)C(=O)N1` (mixture of isomers) [E 22, Rac-2-(2,6-dioxopiperidin-3-yl)-6-(3-(3-(4-((1R,2S)-6-hydroxy-2-phenyl-1,2,3,4-tetrahydronaphthalen-1-yl)phenoxy)piperidine-1-carbonyl)cyclobutyl)-6,7-dihydropyrrolo[3,4-f]isoindole-1,3(2H,5H)-dione], the DC50 was more than 0.1 µM. In the case of `O=C1CCC(N2Cc3cc4c(cc3C2=O)CN(C(=O)[C@H]2CC[C@@H](N3CC(Oc5ccc([C@@H]6c7ccc(O)cc7CC[C@@H]6c6ccccc6)cc5)C3)CC2)C4)C(=O)N1` (single isomer, unassigned) [E 358], the DC50 was more than 0.1 µM.

Consider `O=C1CCC(N2C(=O)c3cc4c(cc3C2=O)CN(CC(=O)N2CCC3(CC2)CCN(c2ncc([C@@H]5c6ccc(O)cc6CC[C@@H]5c5ccccc5)cn2)CC3)C4)C(=O)N1` (mixture of isomers) [E 298, Rac-2-(2,6-dioxopiperidin-3-yl)-6-(2-(9-(5-((1S,2S)-6-hydroxy-2-phenyl-1,2,3,4-tetrahydronaphthalen-1-yl)pyrimidin-2-yl)-3,9-diazaspiro[5.5]undecan-3-yl)-2-oxoethyl)-6,7-dihydropyrrolo[3,4-f]isoindole-1,3(2H,5H)-dione], for which the DC50 was more than 0.1 µM.

For the molecule `O=C1CCC(N2Cc3cc4c(cc3C2=O)CN(CC(=O)N2CCC3(CC2)CN(c2ccc([C@@H]5c6ccc(O)cc6CC[C@@H]5c5ccccc5)cc2)C3)C4)C(=O)N1` (mixture of isomers) [E 5, rac-3-(6-(2-(2-(4-((1R,2S)-6-hydroxy-2-phenyl-1,2,3,4-tetrahydronaphthalen-1-yl)phenyl)-2,7-diazaspiro[3.5]nonan-7-yl)-2-oxoethyl)-1-oxo-3,5,6,7-tetrahydropyrrolo[3,4-f]isoindol-2(1H)-yl)piperidine-2,6-dione], the DC50 was less than 0.01 µM.

Regarding `O=C1CCC(N2C(=O)c3cc4c(cc3C2=O)CN(C(=O)c2ccc(CC(=O)N3CCCC(Oc5ccc([C@@H]6c7ccc(O)cc7CC[C@@H]6c6ccccc6)cc5)C3)cc2)C4)C(=O)N1` (mixture of isomers) [E 24, Rac-2-(2,6-dioxopiperidin-3-yl)-6-(4-(2-(3-(4-((1R,2S)-6-hydroxy-2-phenyl-1,2,3,4-tetrahydronaphthalen-1-yl)phenoxy)piperidin-1-yl)-2-oxoethyl)benzoyl)-6,7-dihydropyrrolo[3,4-f]isoindole-1,3(2H,5H)-dione], the DC50 lay within 0.01 to 0.1 µM.

On to `C[C@@H]1Cc2c([nH]c3ccccc23)[C@@H](c2c(F)cc(N3CCC4(CCN(C(=O)CN5Cc6cc7c(cc6C5)C(=O)N(C5CCC(=O)NC5=O)C7=O)C4)C3)cc2F)N1CC(F)F` (stereo partly drawn) [E 79, 6-(2-(7-(4-((1R,3R)-2-(2,2-difluoroethyl)-3-methyl-2,3,4,9-tetrahydro-1H-pyrido[3,4-b]indol-1-yl)-3,5-difluorophenyl)-2,7-diazaspiro[4.4]nonan-2-yl)-2-oxoethyl)-2-(2,6-dioxopiperidin-3-yl)-6,7-dihydropyrrolo[3,4-f]isoindole-1,3(2H,5H)-dione], for which the half-maximal degradation concentration (DC50) is 0.01 to 0.1 µM.

Regarding `C[C@@H]1Cc2c([nH]c3ccccc23)[C@H](c2c(F)cc(CN3CCC4(CCC(C(=O)N5Cc6cc7c(cc6C5)C(=O)N(C5CCC(=O)NC5=O)C7=O)CC4)CC3)cc2F)N1CC(F)F` (stereo partly drawn) [E 383, 6-(3-(4-((1S,3R)-2-(2,2-difluoroethyl)-3-methyl-2,3,4,9-tetrahydro-1H-pyrido[3,4-b]indol-1-yl)-3,5-difluorobenzyl)-3-azaspiro[5.5]undecane-9-carbonyl)-2-(2,6-dioxopiperidin-3-yl)-6,7-dihydropyrrolo[3,4-f]isoindole-1,3(2H,5H)-dione], the DC50 is more than 0.1 µM. With `C[C@@H]1Cc2c([nH]c3ccccc23)[C@@H](c2c(F)cc(C3CCN(C[C@H]4CC[C@H](N5Cc6cc7c(cc6C5)C(=O)N(C5CCC(=O)NC5=O)C7=O)CC4)CC3)cc2F)N1CC(F)F` (stereo partly drawn) [E 366, 6-((1R,4r)-4-((4-(4-((1R,3R)-2-(2,2-difluoroethyl)-3-methyl-2,3,4,9-tetrahydro-1H-pyrido[3,4-b]indol-1-yl)-3,5-difluorophenyl)piperidin-1-yl)methyl)cyclohexyl)-2-(2,6-dioxopiperidin-3-yl)-6,7-dihydropyrrolo[3,4-f]isoindole-1,3(2H,5H)-dione], the DC50 is more than 0.1 µM.

As for `O=C1CCC(N2C(=O)c3cc4c(cc3C2=O)CN(CC(=O)N2CC3(CCN(c5ccc([C@@H]6c7ccc(O)cc7CC[C@@H]6c6ccccc6)cc5F)CC3)C2)C4)C(=O)N1` (mixture of isomers) [E 173, Rac-2-(2,6-dioxopiperidin-3-yl)-6-(2-(7-(2-fluoro-4-((1R,2S)-6-hydroxy-2-phenyl-1,2,3,4-tetrahydronaphthalen-1-yl)phenyl)-2,7-diazaspiro[3.5]nonan-2-yl)-2-oxoethyl)-6,7-dihydropyrrolo[3,4-f]isoindole-1,3(2H,5H)-dione], the half-maximal degradation concentration (DC50) is more than 0.1 µM. For `C[C@@H]1Cc2c([nH]c3ccccc23)[C@@H](c2c(F)cc(N3CCC(C(=O)N4CCC(N5Cc6cc7c(cc6C5)C(=O)N(C5CCC(=O)NC5=O)C7=O)CC4)CC3)cc2F)N1CC(F)F` (stereo partly drawn) [E 114, 6-(1-(1-(4-((1R,3R)-2-(2,2-difluoroethyl)-3-methyl-2,3,4,9-tetrahydro-1H-pyrido[3,4-b]indol-1-yl)-3,5-difluorophenyl)piperidine-4-carbonyl)piperidin-4-yl)-2-(2,6-dioxopiperidin-3-yl)-6,7-dihydropyrrolo[3,4-f]isoindole-1,3(2H,5H)-dione], the DC50 was less than 0.01 µM.

With `C[C@@H]1Cc2c([nH]c3ccccc23)[C@@H](c2ccc(C3CCC(C(=O)N4CCC(N5Cc6cc7c(cc6C5)C(=O)N(C5CCC(=O)NC5=O)C7=O)CC4)CC3)cn2)N1CC(F)F` (stereo partly drawn) [E 313, 6-(1-(4-(6-((1S,3R)-2-(2,2-difluoroethyl)-3-methyl-2,3,4,9-tetrahydro-1H-pyrido[3,4-b]indol-1-yl)pyridin-3-yl)cyclohexane-1-carbonyl)piperidin-4-yl)-2-(2,6-dioxopiperidin-3-yl)-6,7-dihydropyrrolo[3,4-f]isoindole-1,3(2H,5H)-dione], the half-maximal degradation concentration (DC50) lay within 0.01 to 0.1 µM. Under `C[C@@H]1Cc2c([nH]c3ccccc23)[C@@H](c2c(F)cc(N3CCC(CC(=O)N4Cc5cc6c(cc5C4)C(=O)N(C4CCC(=O)NC4=O)C6)CC3)cc2F)N1CC(F)F` (stereo partly drawn) [E 104, 3-(6-(2-(1-(4-((1R,3R)-2-(2,2-difluoroethyl)-3-methyl-2,3,4,9-tetrahydro-1H-pyrido[3,4-b]indol-1-yl)-3,5-difluorophenyl)piperidin-4-yl)acetyl)-1-oxo-3,5,6,7-tetrahydropyrrolo[3,4-f]isoindol-2(1H)-yl)piperidine-2,6-dione] stands more than 0.1 µM. With `O=C1CCC(N2C(=O)c3cc4c(cc3C2=O)CN(C(=O)CN2CCC3(CCN(c5ccc([C@@H]6c7ccc(O)cc7CC[C@@H]6c6ccccc6)cc5)CC3)C2)C4)C(=O)N1` (mixture of isomers) [E 140, Rac-2-(2,6-dioxopiperidin-3-yl)-6-(2-(8-(4-((1R,2S)-6-hydroxy-2-phenyl-1,2,3,4-tetrahydronaphthalen-1-yl)phenyl)-2,8-diazaspiro[4.5]decan-2-yl)acetyl)-6,7-dihydropyrrolo[3,4-f]isoindole-1,3(2H,5H)-dione], the DC50 was more than 0.1 µM. Regarding `C[C@H]1CC2(CCN(c3ccc([C@@H]4c5ccc(O)cc5CC[C@@H]4c4ccccc4)cc3)CC2)CN1CC(=O)N1Cc2cc3c(cc2C1)C(=O)N(C1CCC(=O)NC1=O)C3=O` (mixture of isomers) [E 151, Rac-2-(2,6-dioxopiperidin-3-yl)-6-(2-((S)-8-(4-((1R,2S)-6-hydroxy-2-phenyl-1,2,3,4-tetrahydronaphthalen-1-yl)phenyl)-3-methyl-2,8-diazaspiro[4.5]decan-2-yl)acetyl)-6,7-dihydropyrrolo[3,4-f]isoindole-1,3(2H,5H)-dione], the DC50 was more than 0.1 µM.

For `O=C1CCC(N2C(=O)c3cc4c(cc3C2=O)CCN(CC(=O)N2CC3(CCN(c5ccc([C@@H]6c7ccc(O)cc7CC[C@@H]6c6ccccc6)cc5)CC3)C2)CC4)C(=O)N1` (stereo partly drawn) [E 169, 2-(2,6-dioxopiperidin-3-yl)-7-(2-(7-(4-((1R,2S)-6-hydroxy-2-phenyl-1,2,3,4-tetrahydronaphthalen-1-yl)phenyl)-2,7-diazaspiro[3.5]nonan-2-yl)-2-oxoethyl)-6,7,8,9-tetrahydroazepino[4,5-f]isoindole-1,3(2H,5H)-dione], the DC50 was more than 0.1 µM.

With `O=C1CCC(N2C(=O)c3cc4c(cc3C2=O)CN(CC(=O)N2CC3(CCN(c5ccc([C@@H]6c7ccc(O)cc7CC[C@@H]6c6ccccc6)cc5)CC3)C2)CC4)C(=O)N1` (mixture of isomers) [E 163, rac-2-(2,6-dioxopiperidin-3-yl)-6-(2-(7-(4-((1R,2S)-6-hydroxy-2-phenyl-1,2,3,4-tetrahydronaphthalen-1-yl)phenyl)-2,7-diazaspiro[3.5]nonan-2-yl)-2-oxoethyl)-5,6,7,8-tetrahydro-1H-pyrrolo[3,4-g]isoquinoline-1,3(2H)-dione], the DC50 is 0.01 to 0.1 µM.
